Test system: BT-474
Test: Antitumor activity against human BT474 cells xenografted in nude-foxn1nu mouse assessed as reduction in tumor growth at 3 mg/kg after 14 days relative to control
Format: functional
Set-up: scale not given: the % may be the effect or the level left

COc1cccc2c1C(=O)c1c(O)c3c(c(O)c1C2=O)C[C@@](O)(C(=O)CO)C[C@@H]3O[C@H]1C[C@H](N)[C@H](O)[C@H](C)O1 [DOXORUBICIN]
Activity: 60%

Source: ChEMBL document CHEMBL1158487, “Small molecule chloropyramine hydrochloride (C4) targets the binding site of focal adhesion kinase and vascular endothelial growth factor receptor 3 and suppresses breast cancer growth in vivo” (J Med Chem, 2009)
